From publication PMC9962794, “A Novel and Functionally Diverse Class of Acetylcholine-Gated Ion Channels” (The Journal of Neuroscience, 2023) come the findings set out here.

The term IC50 denotes the midpoint of a concentration-inhibition curve. A high value points to a need for much substance. The term EC50 denotes the concentration needed to bring the measured effect to its halfway point.

Assay in all cases: two-electrode voltage clamp, oocytes
Format in all cases: cell-based

In experiment [1] the target is T1, LGC-39 (Caenorhabditis elegans, UniProt O17402).
T1 construct: full-length cDNA by gene synthesis, KSM vector, cRNA in Xenopus laevis oocytes; homomeric pentameric channel
T1 sequence (O17402 22-563): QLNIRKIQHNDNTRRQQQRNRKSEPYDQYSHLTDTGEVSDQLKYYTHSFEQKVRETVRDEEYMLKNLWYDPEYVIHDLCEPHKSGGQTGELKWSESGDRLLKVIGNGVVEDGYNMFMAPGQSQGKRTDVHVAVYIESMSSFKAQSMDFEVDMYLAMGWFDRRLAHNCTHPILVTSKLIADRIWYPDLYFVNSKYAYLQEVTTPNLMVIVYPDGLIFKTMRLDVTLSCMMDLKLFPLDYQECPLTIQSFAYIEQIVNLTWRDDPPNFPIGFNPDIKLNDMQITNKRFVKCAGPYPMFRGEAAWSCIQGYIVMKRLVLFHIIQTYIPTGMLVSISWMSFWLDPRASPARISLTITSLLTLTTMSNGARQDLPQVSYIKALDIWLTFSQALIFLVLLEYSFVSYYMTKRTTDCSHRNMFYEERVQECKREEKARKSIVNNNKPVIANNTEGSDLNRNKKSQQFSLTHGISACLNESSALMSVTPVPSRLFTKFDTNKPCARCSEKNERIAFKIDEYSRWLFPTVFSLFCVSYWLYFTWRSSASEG

Experiment [2] deals with T1, LGC-39. This is another data set of the same source.
Experiment [3] has as its target T2, LGC-57 (Caenorhabditis elegans, UniProt Q09453).
T2 construct: full-length untagged cDNA in KSM vector, cRNA in Xenopus laevis oocytes; pentameric, expressed alone
T2 sequence (Q09453 20-473): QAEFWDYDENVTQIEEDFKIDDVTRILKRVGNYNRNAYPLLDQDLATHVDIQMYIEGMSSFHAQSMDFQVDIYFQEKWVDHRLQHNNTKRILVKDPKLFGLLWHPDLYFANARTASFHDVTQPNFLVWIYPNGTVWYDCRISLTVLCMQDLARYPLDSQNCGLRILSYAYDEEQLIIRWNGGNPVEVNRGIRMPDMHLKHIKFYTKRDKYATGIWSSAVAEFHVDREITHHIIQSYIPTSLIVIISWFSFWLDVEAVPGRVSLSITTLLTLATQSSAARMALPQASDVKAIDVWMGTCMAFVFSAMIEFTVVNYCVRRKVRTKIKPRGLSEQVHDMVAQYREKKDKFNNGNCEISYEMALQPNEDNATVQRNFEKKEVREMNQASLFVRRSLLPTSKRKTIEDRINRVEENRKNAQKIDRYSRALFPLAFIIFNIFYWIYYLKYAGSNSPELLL

For experiment [4], the target named is T3, LGC-58 (Caenorhabditis elegans, UniProt Q2WF65).
T3 construct: full-length untagged cDNA in KSM vector, cRNA in Xenopus laevis oocytes; pentameric, expressed alone
T3 sequence (Q2WF65 21-546): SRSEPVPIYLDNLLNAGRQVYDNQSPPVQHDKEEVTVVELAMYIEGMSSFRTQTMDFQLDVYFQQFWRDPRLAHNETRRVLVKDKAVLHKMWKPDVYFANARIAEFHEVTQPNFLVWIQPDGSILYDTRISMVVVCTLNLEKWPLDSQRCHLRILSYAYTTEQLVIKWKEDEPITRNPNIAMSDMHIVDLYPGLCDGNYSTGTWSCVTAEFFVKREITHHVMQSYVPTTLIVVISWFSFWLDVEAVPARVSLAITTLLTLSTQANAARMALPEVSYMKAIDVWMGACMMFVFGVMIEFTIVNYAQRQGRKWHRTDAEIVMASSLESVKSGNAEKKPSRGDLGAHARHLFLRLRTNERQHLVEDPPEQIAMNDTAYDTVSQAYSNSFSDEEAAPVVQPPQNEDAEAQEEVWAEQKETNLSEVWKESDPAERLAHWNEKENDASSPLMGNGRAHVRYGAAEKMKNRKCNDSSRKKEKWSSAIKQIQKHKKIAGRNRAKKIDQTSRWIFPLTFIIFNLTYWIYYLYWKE

In experiment [5] the target is T4, LGC-49 (Caenorhabditis elegans, UniProt Q21420).
T4 construct: full-length cDNA in KSM vector, cRNA in Xenopus laevis oocytes; homomeric pentameric channel
T4 sequence (Q21420 26-457): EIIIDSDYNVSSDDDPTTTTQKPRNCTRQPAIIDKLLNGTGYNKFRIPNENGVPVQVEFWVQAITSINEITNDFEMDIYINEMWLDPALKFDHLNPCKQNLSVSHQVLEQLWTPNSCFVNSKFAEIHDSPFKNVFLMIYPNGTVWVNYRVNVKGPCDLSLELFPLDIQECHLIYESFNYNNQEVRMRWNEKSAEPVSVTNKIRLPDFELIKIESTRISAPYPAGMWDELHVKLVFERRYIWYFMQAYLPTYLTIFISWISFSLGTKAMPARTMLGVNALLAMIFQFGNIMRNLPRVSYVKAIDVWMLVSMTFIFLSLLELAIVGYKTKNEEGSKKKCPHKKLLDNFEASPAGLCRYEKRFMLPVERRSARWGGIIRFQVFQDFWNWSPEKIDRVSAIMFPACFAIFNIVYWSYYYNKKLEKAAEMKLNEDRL

For experiment [6], the target named is T5, LGC-46 (Caenorhabditis elegans, UniProt Q95Y52).
T5 construct: full-length cDNA in KSM vector, cRNA in Xenopus laevis oocytes; pentameric, expressed alone
T5 sequence (Q95Y52 19-508): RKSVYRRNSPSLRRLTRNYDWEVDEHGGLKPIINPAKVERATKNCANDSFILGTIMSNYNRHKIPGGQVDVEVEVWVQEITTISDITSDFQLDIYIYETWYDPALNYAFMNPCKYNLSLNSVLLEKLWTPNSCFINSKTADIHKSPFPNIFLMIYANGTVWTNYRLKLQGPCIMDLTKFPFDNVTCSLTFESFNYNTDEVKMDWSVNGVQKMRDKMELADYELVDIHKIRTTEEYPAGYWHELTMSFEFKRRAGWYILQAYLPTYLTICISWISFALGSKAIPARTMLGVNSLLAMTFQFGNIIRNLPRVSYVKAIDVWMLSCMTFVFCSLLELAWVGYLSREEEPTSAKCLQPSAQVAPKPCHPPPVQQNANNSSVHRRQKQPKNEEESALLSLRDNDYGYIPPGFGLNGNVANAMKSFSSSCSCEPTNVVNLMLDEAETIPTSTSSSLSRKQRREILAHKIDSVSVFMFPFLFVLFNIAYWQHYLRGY
Conditions: agonist; ND96, clamped at -60 mV.

Experiment [7] addresses T6, LGC-40 (Caenorhabditis elegans, UniProt Q22741).
T6 construct: full-length untagged cDNA in KSM vector, cRNA in Xenopus laevis oocytes; pentameric, expressed alone
T6 sequence (Q22741 23-494): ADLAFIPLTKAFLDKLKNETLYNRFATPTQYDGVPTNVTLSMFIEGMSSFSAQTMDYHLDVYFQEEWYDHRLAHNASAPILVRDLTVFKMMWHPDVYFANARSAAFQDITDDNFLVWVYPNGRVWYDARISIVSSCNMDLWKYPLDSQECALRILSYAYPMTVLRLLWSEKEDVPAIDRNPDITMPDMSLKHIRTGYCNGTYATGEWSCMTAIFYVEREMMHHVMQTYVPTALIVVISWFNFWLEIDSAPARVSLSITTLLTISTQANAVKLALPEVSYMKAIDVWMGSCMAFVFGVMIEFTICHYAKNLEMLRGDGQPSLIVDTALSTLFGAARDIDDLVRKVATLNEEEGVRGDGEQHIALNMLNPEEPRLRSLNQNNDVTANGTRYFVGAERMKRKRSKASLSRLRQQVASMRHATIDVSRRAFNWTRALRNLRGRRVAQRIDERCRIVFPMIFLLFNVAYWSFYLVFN

SMILES strings stand for the structures. Where two headings read alike, the source gives them in different places.

Take `NC1=NCC2c3ccccc3Cc3ccccc3N12` (stereo not drawn) [epinastine]: the IC50 in experiment [1] is 1 µM. Also, the EC50 in experiment [2] (read-out: EC50) came to 10 µM.

Regarding `COC(=O)[C@@H]1[C@H]2C[C@H]3c4[nH]c5ccccc5c4CCN3C[C@@H]2CC[C@@H]1O` [yohimbine], the 50% inhibitory concentration (IC50) in experiment [1] was 4 µM.

For `NCCc1ccc(O)cc1` [tyramine], in experiment [2] (read-out: EC50), the EC50 was 686 µM.

In the case of `CC(=O)OCC[N+](C)(C)C` [acetylcholine], the EC50 is 115 µM in experiment [3]; 41 µM in experiment [4]; 19 µM in experiment [5]; “the ACh-induced dose–response curve for LGC-46” in experiment [6]; 1290 µM in experiment [2] (read-out: EC50); 117 µM in experiment [7].

The molecule `O=C1C[C@@H]2OCC=C3CN4CC[C@]56c7ccccc7N1[C@H]5[C@H]2[C@H]3C[C@H]46` [strychnine] had an EC50 in experiment [2] of 7.5 µM.

For `C[N+](C)(C)CCO` [choline], the EC50 came out at 22 µM in experiment [3], 15 µM in experiment [4] and 15 µM in experiment [7].

With `NC[C@H](O)c1ccc(O)cc1` [octopamine], the EC50 in experiment [2] (read-out: EC50) is 921 µM.
